Assay results published in US20230085307A1, “PYRIDAZINONE COMPOUND AND HERBICIDE” (NISSAN CHEMICAL CORPORATION, priority 2019, published 2023).

How the values were obtained:
[1] = test system: southern crabgrass; assay: Test Example 4: herbicidal effect by soil treatment (Table 19, symbol F); format: in vivo, southern crabgrass (Digitaria ciliaris)
Summary of the method: (§1)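 Applied as a water-diluted emulsion, the compound was sprayed onto soil covering newly sown seeds. Evaluation came three weeks after application, in a greenhouse held at 25° C. to 30° C.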

[2] = test system: late watergrass; assay: Test Example 2: herbicidal activity, application during weed generation under submerged conditions (Table 17, symbol A); format: in vivo, late watergrass (Echinochloa oryzicola); conditions: AAH 320 g/ha; application during weed generation, submerged conditions
Summary of the method: (§2)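 Steps: fill Wagner pots with alluvial soil; add water to give 4 cm depth; sow the species mixed; grow under glass at 25–30° C.; at 1–2 leaves apply water-diluted emulsion formulation to the water surface at a fixed herbicide amount; score after 3 weeks.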

[3] = test system: lambsquarters; assay: Test Example 5: herbicidal effect by foliage application, plastic box (Table 20, symbol O); format: in vivo, lambsquarters (Chenopodium album); conditions: foliage application
Summary of the method: (§3)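 Sow seeds spot-wise in sterilized diluvial soil; cover with ~1.5 cm soil. Grow 14 days in greenhouse, 25° C. to 30° C. Spray foliage with emulsion diluted to predetermined amount. Rate effect after 3 weeks.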

[4] = test system: velvetleaf; assay: Test Example 5: herbicidal effect by foliage application, plastic box (Table 20, symbol M); format: in vivo, velvetleaf (Abutilon theophrasti); conditions: foliage application
Summary of the method: as §3

[5] = test system: chickweed; assay: Test Example 5: herbicidal effect by foliage application, plastic box (Table 20, symbol P); format: in vivo, common chickweed (Stellaria media); conditions: foliage application
Summary of the method: as §3

[6] = test system: persian speedwell; assay: Test Example 5: herbicidal effect by foliage application, plastic box (Table 20, symbol R); format: in vivo, Persian speedwell (Veronica persica); conditions: foliage application
Summary of the method: as §3

[7] = test system: persian speedwell; assay: Test Example 4: herbicidal effect by soil treatment (Table 19, symbol R); format: in vivo, Persian speedwell (Veronica persica)
Summary of the method: as §1

[8] = test system: rice flat sedge; assay: Test Example 3: herbicidal effect by foliage application, Wagner pot (Table 18, symbol E); format: in vivo, rice flat sedge (Cyperus iria); conditions: 320 g/ha
Summary of the method: (§4)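 Plants were sown in alluvial soil held under 0.1–0.5 cm standing water and grown 14 days in a greenhouse at 25–30 °C. An emulsifiable formulation, water-diluted to the set dose, was then sprayed onto the foliage, and effects were scored three weeks later using previously defined criteria.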

[9] = test system: Japanese bulrush; assay: Test Example 2: herbicidal activity, application during weed generation under submerged conditions (Table 17, symbol B); format: in vivo, Japanese bulrush (Schoenoplectus juncoides); conditions: AAH 320 g/ha; application during weed generation, submerged conditions
Summary of the method: as §2

[10] = test system: barnyard grass; assay: Test Example 4: herbicidal effect by soil treatment (Table 19, symbol H); format: in vivo, barnyard grass (Echinochloa crus-galli)
Summary of the method: as §1

[11] = test system: Chinese sprangletop; assay: Test Example 3: herbicidal effect by foliage application, Wagner pot (Table 18, symbol D); format: in vivo, chinese sprangletop (Leptochloa chinensis); conditions: 320 g/ha
Summary of the method: as §4

[12] = test system: oval-leafed pondweed; assay: Test Example 2: herbicidal activity, application during weed generation under submerged conditions (Table 17, symbol C); format: in vivo, oval-leafed pondweed (Monochoria vaginalis); conditions: AAH 320 g/ha; application during weed generation, submerged conditions
Summary of the method: as §2

[13] = test system: Italian ryegrass; assay: Test Example 5: herbicidal effect by foliage application, plastic box (Table 20, symbol K); format: in vivo, Italian ryegrass (Lolium multiflorum); conditions: foliage application
Summary of the method: as §3

[14] = test system: lambsquarters; assay: Test Example 4: herbicidal effect by soil treatment (Table 19, symbol O); format: in vivo, lambsquarters (Chenopodium album)
Summary of the method: as §1

[15] = test system: blackgrass; assay: Test Example 4: herbicidal effect by soil treatment (Table 19, symbol J); format: in vivo, blackgrass (Alopecurus myosuroides)
Summary of the method: as §1

[16] = test system: redroot pigweed; assay: Test Example 5: herbicidal effect by foliage application, plastic box (Table 20, symbol N); format: in vivo, redroot pigweed (Amaranthus retroflexus); conditions: foliage application
Summary of the method: as §3

[17] = test system: barnyard grass; assay: Test Example 3: herbicidal effect by foliage application, Wagner pot (Table 18, symbol H); format: in vivo, barnyard grass (Echinochloa crus-galli); conditions: 320 g/ha
Summary of the method: as §4

[18] = test system: chickweed; assay: Test Example 4: herbicidal effect by soil treatment (Table 19, symbol P); format: in vivo, common chickweed (Stellaria media)
Summary of the method: as §1

[19] = test system: windgrass; assay: Test Example 4: herbicidal effect by soil treatment (Table 19, symbol L); format: in vivo, windgrass (Apera spica-venti)
Summary of the method: as §1

[20] = test system: windgrass; assay: Test Example 5: herbicidal effect by foliage application, plastic box (Table 20, symbol L); format: in vivo, windgrass (Apera spica-venti); conditions: foliage application
Summary of the method: as §3

[21] = test system: green foxtail; assay: Test Example 4: herbicidal effect by soil treatment (Table 19, symbol G); format: in vivo, green foxtail (Setaria viridis)
Summary of the method: as §1

[22] = test system: wild oat; assay: Test Example 5: herbicidal effect by foliage application, plastic box (Table 20, symbol I); format: in vivo, wild oat (Avena fatua); conditions: foliage application
Summary of the method: as §3

[23] = test system: velvetleaf; assay: Test Example 4: herbicidal effect by soil treatment (Table 19, symbol M); format: in vivo, velvetleaf (Abutilon theophrasti)
Summary of the method: as §1

[24] = test system: blackgrass; assay: Test Example 5: herbicidal effect by foliage application, plastic box (Table 20, symbol J); format: in vivo, blackgrass (Alopecurus myosuroides); conditions: foliage application
Summary of the method: as §3

[25] = test system: barnyard grass; assay: Test Example 5: herbicidal effect by foliage application, plastic box (Table 20, symbol H); format: in vivo, barnyard grass (Echinochloa crus-galli); conditions: foliage application
Summary of the method: as §3

[26] = test system: wild oat; assay: Test Example 4: herbicidal effect by soil treatment (Table 19, symbol I); format: in vivo, wild oat (Avena fatua)
Summary of the method: as §1

[27] = test system: southern crabgrass; assay: Test Example 5: herbicidal effect by foliage application, plastic box (Table 20, symbol F); format: in vivo, southern crabgrass (Digitaria ciliaris); conditions: foliage application
Summary of the method: as §3

[28] = test system: redroot pigweed; assay: Test Example 4: herbicidal effect by soil treatment (Table 19, symbol N); format: in vivo, redroot pigweed (Amaranthus retroflexus)
Summary of the method: as §1

[29] = test system: Italian ryegrass; assay: Test Example 4: herbicidal effect by soil treatment (Table 19, symbol K); format: in vivo, Italian ryegrass (Lolium multiflorum)
Summary of the method: as §1

[30] = test system: green foxtail; assay: Test Example 5: herbicidal effect by foliage application, plastic box (Table 20, symbol G); format: in vivo, green foxtail (Setaria viridis); conditions: foliage application
Summary of the method: as §3

[31] = 320 g/ha, evaluated three weeks after application
[32] = AAH 320 g/ha, three weeks after application

CC(=O)COc1ccc(-c2sc3ccc(F)cc3c2-c2c(O)c(C)nn(C)c2=O)cc1 [2-068]
herbicidal effect rating, F: southern crabgrass ([1]; 320 g/ha): 1 (Herbicidal rate of 5% or more and less than 20%)
herbicidal effect rating, A: late watergrass [2]: 2 (Herbicidal rate of 20% or more and less than 40%)
herbicidal effect on O: lambsquarters [3, 31]: 5 (Herbicidal rate of 90% or more (almost completely withered))
herbicidal effect on M: velvetleaf [4, 31]: 5 (Herbicidal rate of 90% or more (almost completely withered))
herbicidal effect on P: chickweed [5, 31]: 5 (Herbicidal rate of 90% or more (almost completely withered))
herbicidal effect on R: persian speedwell [6, 31]: 5 (Herbicidal rate of 90% or more (almost completely withered))
herbicidal effect rating, R: persian speedwell ([7]; 320 g/ha): 4 (Herbicidal rate of 70% or more and less than 90%)
herbicidal effect on E (rice flat sedge), rating 0-5 [8]: 5 (Herbicidal rate of 90% or more (almost completely withered))
herbicidal effect rating, B: Japanese bulrush [9]: 3 (Herbicidal rate of 40% or more and less than 70%)
herbicidal effect rating, H: barnyard grass ([10]; 320 g/ha): 3 (Herbicidal rate of 40% or more and less than 70%)
herbicidal effect on D (Chinese sprangletop), rating 0-5 [11]: 4 (Herbicidal rate of 70% or more and less than 90%)
herbicidal effect rating, C: oval-leafed pondweed [12]: 3 (Herbicidal rate of 40% or more and less than 70%)
herbicidal effect on K: Italian ryegrass [13, 31]: 3 (Herbicidal rate of 40% or more and less than 70%)
herbicidal effect rating, O: lambsquarters ([14]; 320 g/ha): 4 (Herbicidal rate of 70% or more and less than 90%)
herbicidal effect rating, J: blackgrass ([15]; 320 g/ha): 0 (Herbicidal rate of 5% or less (almost no effect))
herbicidal effect on N: redroot pigweed [16, 31]: 5 (Herbicidal rate of 90% or more (almost completely withered))
herbicidal effect on H (barnyard grass), rating 0-5 [17]: 5 (Herbicidal rate of 90% or more (almost completely withered))
herbicidal effect rating, P: chickweed ([18]; 320 g/ha): 0 (Herbicidal rate of 5% or less (almost no effect))
herbicidal effect rating, L: windgrass ([19]; 320 g/ha): 0 (Herbicidal rate of 5% or less (almost no effect))
herbicidal effect on L: windgrass [20, 31]: 5 (Herbicidal rate of 90% or more (almost completely withered))
herbicidal effect rating, G: green foxtail ([21]; 320 g/ha): 4 (Herbicidal rate of 70% or more and less than 90%)
herbicidal effect on I: wild oat [22, 31]: 4 (Herbicidal rate of 70% or more and less than 90%)
herbicidal effect rating, M: velvetleaf ([23]; 320 g/ha): 5 (Herbicidal rate of 90% or more (almost completely withered))
herbicidal effect on J: blackgrass [24, 31]: 4 (Herbicidal rate of 70% or more and less than 90%)
herbicidal effect on H: barnyard grass [25, 31]: 5 (Herbicidal rate of 90% or more (almost completely withered))
herbicidal effect rating, I: wild oat ([26]; 320 g/ha): 0 (Herbicidal rate of 5% or less (almost no effect))
herbicidal effect on F: southern crabgrass [27, 31]: 5 (Herbicidal rate of 90% or more (almost completely withered))
herbicidal effect rating, N: redroot pigweed ([28]; 320 g/ha): 5 (Herbicidal rate of 90% or more (almost completely withered))
herbicidal effect rating, K: Italian ryegrass ([29]; 320 g/ha): 0 (Herbicidal rate of 5% or less (almost no effect))
herbicidal effect on G: green foxtail [30, 31]: 5 (Herbicidal rate of 90% or more (almost completely withered))

Cc1nn(C)c(=O)c(-c2c(-c3ccccc3OCC(F)(F)F)sc3ccccc23)c1O [1-118]
F: southern crabgrass, herbicidal effect rating ([1]; AAH 320 g/ha): 1 (Herbicidal rate of 5% or more and less than 20%)
herbicidal effect rating, A: late watergrass [2]: 3 (Herbicidal rate of 40% or more and less than 70%)
O: lambsquarters, herbicidal effect [3, 32]: 3 (Herbicidal rate of 40% or more and less than 70%)
M: velvetleaf, herbicidal effect [4, 32]: 5 (Herbicidal rate of 90% or more (almost completely withered))
P: chickweed, herbicidal effect [5, 32]: 5 (Herbicidal rate of 90% or more (almost completely withered))
R: persian speedwell, herbicidal effect [6, 32]: 5 (Herbicidal rate of 90% or more (almost completely withered))
R: persian speedwell, herbicidal effect rating ([7]; AAH 320 g/ha): 4 (Herbicidal rate of 70% or more and less than 90%)
herbicidal effect on E (rice flat sedge), rating 0-5 [8]: 2 (Herbicidal rate of 20% or more and less than 40%)
herbicidal effect rating, B: Japanese bulrush [9]: 0 (Herbicidal rate of 5% or less (almost no effect))
H: barnyard grass, herbicidal effect rating ([10]; AAH 320 g/ha): 4 (Herbicidal rate of 70% or more and less than 90%)
herbicidal effect on D (Chinese sprangletop), rating 0-5 [11]: 2 (Herbicidal rate of 20% or more and less than 40%)
herbicidal effect rating, C: oval-leafed pondweed [12]: 0 (Herbicidal rate of 5% or less (almost no effect))
K: Italian ryegrass, herbicidal effect [13, 32]: 4 (Herbicidal rate of 70% or more and less than 90%)
O: lambsquarters, herbicidal effect rating ([14]; AAH 320 g/ha): 5 (Herbicidal rate of 90% or more (almost completely withered))
J: blackgrass, herbicidal effect rating ([15]; AAH 320 g/ha): 3 (Herbicidal rate of 40% or more and less than 70%)
N: redroot pigweed, herbicidal effect [16, 32]: 5 (Herbicidal rate of 90% or more (almost completely withered))
herbicidal effect on H (barnyard grass), rating 0-5 [17]: 4 (Herbicidal rate of 70% or more and less than 90%)
P: chickweed, herbicidal effect rating ([18]; AAH 320 g/ha): 3 (Herbicidal rate of 40% or more and less than 70%)
L: windgrass, herbicidal effect rating ([19]; AAH 320 g/ha): 3 (Herbicidal rate of 40% or more and less than 70%)
L: windgrass, herbicidal effect [20, 32]: 5 (Herbicidal rate of 90% or more (almost completely withered))
G: green foxtail, herbicidal effect rating ([21]; AAH 320 g/ha): 3 (Herbicidal rate of 40% or more and less than 70%)
I: wild oat, herbicidal effect [22, 32]: 4 (Herbicidal rate of 70% or more and less than 90%)
M: velvetleaf, herbicidal effect rating ([23]; AAH 320 g/ha): 3 (Herbicidal rate of 40% or more and less than 70%)
J: blackgrass, herbicidal effect [24, 32]: 4 (Herbicidal rate of 70% or more and less than 90%)
H: barnyard grass, herbicidal effect [25, 32]: 2 (Herbicidal rate of 20% or more and less than 40%)
I: wild oat, herbicidal effect rating ([26]; AAH 320 g/ha): 3 (Herbicidal rate of 40% or more and less than 70%)
F: southern crabgrass, herbicidal effect [27, 32]: 5 (Herbicidal rate of 90% or more (almost completely withered))
N: redroot pigweed, herbicidal effect rating ([28]; AAH 320 g/ha): 5 (Herbicidal rate of 90% or more (almost completely withered))
K: Italian ryegrass, herbicidal effect rating ([29]; AAH 320 g/ha): 0 (Herbicidal rate of 5% or less (almost no effect))
G: green foxtail, herbicidal effect [30, 32]: 5 (Herbicidal rate of 90% or more (almost completely withered))
